What all share (assay type): in vivo
In test [1] the test system is Tetranychus urticae. Put plainly: Example B: field spray test against spider mites on hops. The settings on record: 2200 l/ha, sprayed once. On the procedure:
Pest: Tetranycus Urticae Crop: Hops The compound of the formula (I) (240SC) was tested at a concentration of 0.0144% a.i. in comparison with the standard Amitraz (200 EC) at 0.05% a.i. The mixture was sprayed once. The spray mixture (2200 l/ha) was applied using a trailed machine operated by a tractor. The plot size was 60 plants, and 2 replications were carried out per test variant. The activity against spider mites was determined 5, 12, 19 and 34 days after the treatment by counting the live animals/leaf (60 leaves/plot) and calculating the efficacy using Abbott's formula.

Test [2] deals with Tetranychus urticae. Description: Example A: field spray test against spider mites on hops. The following applies: 2000 l/ha. How it is done: Pest: Tetranychus Urticae Crop: Hops The compound of the formula (I) (240SC) was tested at a concentration of 0.0048% a.i. in comparison with cis-cyhalothrin (050EC) at 0.005% a.i. The compound of the formula (I) was used at an early stage of the infestation of the pest, while cis-cyhalothrin was applied when the infestation had progressed to a high level. The spray mixture (2000 l/ha) was applied using a knapsack sprayer operated with compressed air. The plot size was 6 plants, the number of replications per test variant was 2. The activity against spider mites was determined 4, 14 and 21 days (compound of the formula (I)) and 4, 11 and 18 days (cis-cyhalothrin) after the treatment by counting the live animals/leaf (10 leaves/plot) and calculating the efficacy using Abbott's formula.

In the next test the test system is Eotetranychus hicoriae. Description: Example D: spray test against pecan leaf scorch mite on pecan nut tree. The settings on record: 0.313 pounds a.i. per acre. On the procedure: Pest: Eotetranychus Hicoriae
The compound of the formula (I) (240 SC) was tested at an application rate of 0.313 lb a.i. per acre in comparison with ACRAMIT (Bifenazate, 50 WP) at 0.50 pound of a.i. per acre.
The spray mixture (105 gallons per acre) was applied by means of a motor-operated hand-held sprayer.
The experiment was carried out with one tree per plot and four replication experiments.
The efficacy against the pecan leaf scorch mite was determined by counting the number of live mites on five leaves per tree 6 and 13 days after the application and subsequently calculated by means of the Abbott formula.

Test [3] has as its system Tetranychus urticae. Put plainly: Example C: spray test against spider mites (eggs and nymphs) on black walnut tree. The following applies: 0.126 pounds a.i. per acre. How it is done:
Pest: Tetranychus Urticae
The compound of the formula (I) (240 SC) was tested at a concentration of 2.02 ounces a.i. per 100 gallons (=0.126 pounds a.i. per acre) in comparison with PYRAMAT (Pyridaben, 75 WP) at an application rate of 0.125 pound a.i. per acre.
The spray mixture (100 gallons per acre) was applied by means of a motor-operated hand-held sprayer.
The test was carried out with one tree per plot and three replication experiments.
The efficacy against spider mites was calculated by counting the live eggs and nymphs on eight leaves per tree before and one, two and six weeks after the application and subsequently calculated using the formula of Henderson & Tilton.

Consider `Cc1ccc(/N=C/N(C)/C=N/c2ccc(C)cc2C)c(C)c1` [Amitraz (200 EC), Amitraz, reference compound], for which the “Efficacy in % Abbott” value in the test with Tetranychus urticae [1] (0.05% a.i., 5 days after treatment) was determined as 80.1%; with Tetranychus urticae [1] (0.05% a.i., 12 days after treatment), 96.3%; in the test on Tetranychus urticae [1] (0.05% a.i., 19 days after treatment) it was 92.2%.
Take `CC1(C)C(/C=C(\Cl)C(F)(F)F)C1C(=O)OC(C#N)c1cccc(Oc2ccccc2)c1` (stereo not drawn) [Cis-cyhalothrin (050 EC), cis-cyhalothrin, reference compound]: the “Efficacy in % Abbott” value in the test with Tetranychus urticae [2] (0.005% a.i., applied at high level of infestation, 4 days after treatment) amounted to 59%; in the test on Tetranychus urticae [2] (0.005% a.i., applied at high level of infestation, 11 days after treatment), 57%; in the test with Tetranychus urticae [2] (0.005% a.i., applied at high level of infestation, 18 days after treatment) it was 0%.
Consider `CCC(C)(C)C(=O)OC1=C(c2ccc(Cl)cc2Cl)C(=O)OC12CCCCC2` [Compound of the formula (I) (240 SC), 2,2-Dimethyl-3-(2,4-dichlorophenyl)-2-oxo-1-oxaspiro[4.5]dec-3-en-yl butanoate], for which the “Efficacy in % Abbott” value stood at 90% with Tetranychus urticae [2] (0.0048% a.i., applied at early stage of infestation, 4 days after treatment); 94% in the test with Tetranychus urticae [2] (0.0048% a.i., applied at early stage of infestation, 14 days after treatment); 93% in the test on Tetranychus urticae [2] (0.0048% a.i., applied at early stage of infestation, 21 days after treatment); 89.7% in the test with Tetranychus urticae [1] (0.0144% a.i., 5 days after treatment); 98.1% with Tetranychus urticae [1] (0.0144% a.i., 12 days after treatment); 99.6% in the test on Tetranychus urticae [1] (0.0144% a.i., 19 days after treatment). Moreover, the “Efficacy in Abbot %” value in the test with Eotetranychus hicoriae (6 DAA (days after application)) turned out to be 100%; in the test with Eotetranychus hicoriae (13 DAA) it was 80%. Further, the “Efficacy in Henderson&Tilton % against NYMPHS” value is given as 100% in the test with Tetranychus urticae [3] (1 WAA), 100% in the test on Tetranychus urticae [3] (2 WAA) and 83% in the test on Tetranychus urticae [3] (6 WAA). Also, the “Efficacy in Henderson&Tilton % against EGGS” value in the test with Tetranychus urticae [3] (1 WAA (one week after application)) worked out at 100%; in the test on Tetranychus urticae [3] (2 WAA), 100%; in the test with Tetranychus urticae [3] (6 WAA) it was 64%.

The values above are taken from patent US8101656B2, “Use of 2,2-dimethyl-3-(2,4-dichlorophenyl)-2-oxo-1-oxaspiro[4,5]dec-3-en-4-yl butanoate for controlling acarides” (Bayer CropScience AG, priority 2003, dated 2012).
